Assay results reported in patent US9062043B2, “Fused tricyclic compounds as serine-threonine protein kinase and PARP modulators” (SENHWA BIOSCIENCES, INC., priority 2006, dated 2015).
pIC50: −log10 of the molar value. Like-named read-outs stand apart in the source and are kept apart here.

Experiments:
[1] = tested on: MiaPaca human pancreatic carcinoma cells; assay: Cell proliferation assay, Alamar Blue, MiaPaca; format: cell-based
Experimental: A representative cell-proliferation assay protocol using Alamar Blue dye (stored at 4° C., use 20 ul per well) is described hereafter.
c. Plate 4,000-5,000 cells per well in 100 μl of medium and seed into a 96-well plate according to the following plate layout. Add cell culture medium only to wells B10 to B12. Wells B1 to B9 have cells but no compound added.
d. Add 100 μl of 2× drug dilution to each well in a concentration shown in the plate layout above. At the same time, add 100 μl of media into the control wells (wells B10 to B12). Total volume is 200 μl/well.
e. Incubate four (4) days at 37° C., 5% CO2 in a humidified incubator.
f. Add 20 μl Alamar Blue reagent to each well.
g. Incubate for four (4) hours at 37° C., 5% CO2 in a humidified incubator.
h. Record fluorescence at an excitation wavelength of 544 nm and emission wavelength of 590 nm using a microplate reader.
In the assays, cells are cultured with a test compound for approximately four days, the dye then is added to the cells and fluorescence of […] dye is detected after approximately four hours. Different types of cells can be utilized in the assays (e.g., HCT-116 human colorectal carcinoma cells, PC-3 human prostatic cancer cells and MiaPaca human pancreatic carcinoma cells). Anti-proliferative effects of representative compounds are provided hereafter.

[2] = tested on: HCT-116 human colorectal carcinoma cells; assay: Cell proliferation assay, Alamar Blue, HCT-116; format: cell-based;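 further: cells exposed to compound for about 4 days, then Alamar Blue added and fluorescence read after about 4 h, medium-only wells as control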
[3] = target: PARP (Homo sapiens (Human), UniProt P09874); assay: PARP assay (chemiluminescent PARP assay kit, Trevigen); format: biochemical; details: for inhibition at 20 µM: read-out: PARP % inhib @ 20 uM
Experimental: Modulatory activity of compounds described herein was assessed in vitro in cell-free CK2 assays. Modulatory activity of compounds described herein also are assessed in vitro in cell-free PARP assays. These assays are described hereafter.
PARP assays are conducted using a chemiluminescent PARP assay kit (Trevigen). Briefly, reactions are performed in Histone-coated strip wells, by adding 10 microliters test compound dissolved in 1×PARP Buffer (prepared by mixing 20×PARP buffer diluted with high-purity water) and 15 microliters diluted PARP-HSA enzyme (diluted in 1× PARP buffer, 0.1 unit per well) to 25 microliters PARP cocktail (prepared from 10×PARP cocktail and 10× activated DNA, both 2.5 microliters per well and 20 microliters per well of 1×PARP buffer). The reactions are incubated at ambient temperature for 60 minutes, then the liquid was removed. After washing the wells four times with PBS (200 ul), 50 microliters of STREP-HRP (Horseradish Peroxidase) solution (diluted 500-fold in 1× Strep-Diluent) was added and the reactions were allowed to incubate for 30 minutes at ambient temperature. The liquid was removed and, after washing the wells four times with PBS (200 ul), 50 microliters each of PeroxyGlo A and B (Chemiluminescent Horseradish Peroxidase substrates) are added and the resulting chemiluminescence quantified on the SpectraMax M5 plate reader.

[4] = HCT-116, Table 16, second HCT-116 column
[5] = 1 uM, Table 12, read-out: PARP % inhib @ 1 uM
[6] = HCT-116, Table 16, first HCT-116 column
[7] = at 1 μM, Table 10, read-out: PARP Inhibition %

Chain of PARP (P09874 whole entry): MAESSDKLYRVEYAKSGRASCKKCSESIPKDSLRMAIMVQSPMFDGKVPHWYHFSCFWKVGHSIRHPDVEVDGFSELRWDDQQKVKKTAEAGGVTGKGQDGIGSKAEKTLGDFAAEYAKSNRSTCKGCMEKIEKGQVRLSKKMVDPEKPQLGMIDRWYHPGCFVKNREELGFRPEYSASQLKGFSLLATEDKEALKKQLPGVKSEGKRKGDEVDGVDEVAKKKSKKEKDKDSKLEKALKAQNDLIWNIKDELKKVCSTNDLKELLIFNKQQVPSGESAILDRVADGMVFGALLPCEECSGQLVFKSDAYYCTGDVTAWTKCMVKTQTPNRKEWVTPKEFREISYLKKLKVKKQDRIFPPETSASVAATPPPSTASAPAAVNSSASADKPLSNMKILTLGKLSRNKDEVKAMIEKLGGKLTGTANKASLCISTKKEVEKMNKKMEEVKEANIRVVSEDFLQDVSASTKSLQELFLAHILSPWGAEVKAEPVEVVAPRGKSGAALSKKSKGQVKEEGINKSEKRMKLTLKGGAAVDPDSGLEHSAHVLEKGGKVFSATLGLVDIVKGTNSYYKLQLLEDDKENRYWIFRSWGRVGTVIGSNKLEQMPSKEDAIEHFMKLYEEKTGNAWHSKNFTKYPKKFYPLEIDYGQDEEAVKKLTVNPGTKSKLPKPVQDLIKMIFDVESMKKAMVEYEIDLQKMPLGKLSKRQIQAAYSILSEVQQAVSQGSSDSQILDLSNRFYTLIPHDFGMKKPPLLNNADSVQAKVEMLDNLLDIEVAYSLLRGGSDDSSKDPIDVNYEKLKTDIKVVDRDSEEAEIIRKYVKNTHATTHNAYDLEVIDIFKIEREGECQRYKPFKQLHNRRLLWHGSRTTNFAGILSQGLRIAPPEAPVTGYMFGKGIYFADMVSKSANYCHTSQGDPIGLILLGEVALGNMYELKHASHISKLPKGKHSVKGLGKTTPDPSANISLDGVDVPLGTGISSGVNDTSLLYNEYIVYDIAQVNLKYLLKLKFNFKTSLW

Row | SMILES | inhibition at 1 µM [3, 5] | inhibition at 20 µM ([3]; Table 12) | further results
1 | CCc1cccc(Nc2nc3cc(C(=O)O)ccc3c3sccc23)c1 |  |  | pIC50 ([1]; MIA PaCa-2, Table 16): < 5.00; pIC50 [2, 4]: < 5.00
2 | O=C(O)c1ccc2c(c1)nc(Nc1ccc(F)c(F)c1)c1ccsc12 |  |  | pIC50 ([1]; MIA PaCa-2, Table 16): < 5.00; pIC50 [2, 4]: 6.08
3 | O=C(O)c1cccc(Nc2nc3cc(-c4nnn[nH]4)ccc3c3sccc23)c1 |  |  | pIC50 ([1]; MIA PaCa-2, Table 16): < 5.00
4 | CN(C)c1ncc2c(n1)c(Nc1cccc(Cl)c1)nc1cc(C(=O)O)ccc12 |  |  | pIC50 ([1]; MIA PaCa-2, Table 18): < 4.30
5 | C#Cc1cccc(Nc2nc3cc(-c4nnn[nH]4)ccc3c3sccc23)c1 |  |  | pIC50 ([1]; MIA PaCa-2, Table 16): < 5.00; pIC50 [2, 4]: < 5.00
6 | O=C(c1cccc(Nc2nc3cc(-c4nnn[nH]4)ccc3c3sccc23)c1)N1CCOCC1 |  |  | pIC50 ([1]; MIA PaCa-2, Table 16): < 5.00; pIC50 [2, 4]: < 5.00
7 | Brc1cccc(Nc2nc3cc(-c4nnn[nH]4)ccc3c3sccc23)c1 |  |  | pIC50 ([1]; MIA PaCa-2, Table 16): < 5.00; pIC50 [2, 4]: < 5.00
8 | O=c1[nH]c2cc(-c3nn[nH]n3)ccc2c2sccc12 | 39% |  | 
9 | O=C(O)c1ccc2c(c1)nc(Nc1ccc(F)c(Cl)c1)c1ccsc12 |  |  | pIC50 ([1]; MIA PaCa-2, Table 16): < 5.00; pIC50 [2, 6]: < 5.00
10 | Cc1cccc(Nc2nc3cc(C(=O)O)ccc3c3sccc23)c1 |  |  | pIC50 ([1]; MIA PaCa-2, Table 16): < 5.00; pIC50 [2, 4]: < 5.00
11 | CN(C)CCNc1nc2cc(C(=O)O)ccc2c2ccccc12 |  |  | inhibition at 1 µM [3, 7]: 15%
12 | COC(=O)c1ccc2c(c1)nc(NC1CC1)c1nc(SC)ncc12 [drawing 1099] |  |  | pIC50 ([1]; MIA PaCa-2, Table 18): < 4.30
13 | CC(=O)N1CCN(C(=O)c2ccc3c(c2)[nH]c(=O)c2ccsc23)CC1 | 71% | 94% | pIC50 ([3]; Table 12): 6.52
14 | O=C(NCc1cccnc1)c1cccc(Nc2nc3cc(-c4nnn[nH]4)ccc3c3sccc23)c1 |  |  | pIC50 ([1]; MIA PaCa-2, Table 16): < 5.00; pIC50 [2, 4]: < 5.00
15 | COc1cccc(Nc2nc3cc(C(=O)O)ccc3c3sccc23)c1 |  |  | pIC50 ([1]; MIA PaCa-2, Table 16): < 5.00; pIC50 [2, 6]: < 5.00
16 | O=c1c2ccccc2c2ccc(-c3nnn[nH]3)cc2n1CCCO |  |  | inhibition at 1 µM [3, 7]: 33%
17 | O=C(Nc1ccc(CN2CCS(=O)(=O)CC2)cc1)c1ccc2c(c1)[nH]c(=O)c1ccsc12 | 29% |  | 
18 | O=C(O)c1ccc2c3sccc3c(=O)n(CCCO)c2c1 | 21% |  | 
19 | CN(C)CCNc1nc2cc(C(=O)O)ccc2c2cnc(NC3CC3)nc12 [drawing 1100] |  |  | pIC50 ([1]; MIA PaCa-2, Table 18): < 4.30
20 | CC(C)(C)OC(=O)NC1CCN(C(=O)c2ccc3c(c2)[nH]c(=O)c2ccsc23)CC1 | 49% |  | 
21 | O=C(O)c1ccc2c(c1)nc(Nc1cccc(-c3ccccc3)c1)c1ccsc12 |  |  | pIC50 ([1]; MIA PaCa-2, Table 16): < 5.00
22 | CC(C)(C)OC(=O)CCNC(=O)c1cccc(Nc2nc3cc(-c4nnn[nH]4)ccc3c3sccc23)c1 |  |  | pIC50 ([1]; MIA PaCa-2, Table 16): < 5.00
23 | CN(C)CCn1c(=O)c2ccsc2c2ccc(C(=O)O)cc21 | 5% |  | 
24 | O=C(O)c1ccc2c(c1)[nH]c(=O)c1cc(Br)sc12 | 39% | 84% | 
25 | NC1CCN(C(=O)c2ccc3c(c2)[nH]c(=O)c2ccsc23)CC1 | 96% |  | pIC50 ([3]; Table 12): 7.70

Now from value to molecule, other results behind:

Row | inhibition at 1 µM [3, 5] | inhibition at 20 µM ([3]; Table 12) | SMILES | further results
26 | 0% | 37% | O=C(Nc1ccc(N2CCOCC2)cc1)c1ccc2c(c1)[nH]c(=O)c1ccsc12 | 
27 | 58% | 90% | O=C(O)c1ccc2c(c1)[nH]c(=O)c1ccsc12 | pIC50 ([3]; Table 12): 6.00
28 | 82% | 95% | O=C(c1ccc2c(c1)[nH]c(=O)c1ccsc12)N1CCOCC1 | pIC50 ([3]; Table 12): 6.40
29 | 0% | 52% | O=C(Nc1nccs1)c1ccc2c(c1)[nH]c(=O)c1ccsc12 | 
30 | 15% | 67% | COc1ccc(CCNC(=O)c2ccc3c(c2)[nH]c(=O)c2ccsc23)cc1OC | 
31 |  | 85% | CN(C)CCNC(=O)c1ccc2c(c1)[nH]c(=O)c1ccsc12 | 
32 | 0% | 24% | COc1ccccc1NC(=O)c1ccc2c(c1)[nH]c(=O)c1ccsc12 | 
33 | 40% | 82% | CC(C)(C)OC(=O)CCNC(=O)c1ccc2c(c1)[nH]c(=O)c1ccsc12 | 
34 | 64% |  | O=C(NCCc1ccccc1)c1ccc2c(c1)[nH]c(=O)c1ccsc12 | pIC50 ([3]; Table 12): 6.30
35 | 0% | 32% | COc1ccc(NC(=O)c2ccc3c(c2)[nH]c(=O)c2ccsc23)c(OC)c1 | 
36 | 27% |  | COc1ccccc1CNC(=O)c1ccc2c(c1)[nH]c(=O)c1ccsc12 | 
37 |  | 0% | O=c1[nH]c2ccccc2c2sccc12 | 
38 | 55% | 83% | O=C(NCCc1ccccn1)c1ccc2c(c1)[nH]c(=O)c1ccsc12 | pIC50 ([3]; Table 12): 6.00
39 | 31% | 97% | O=C(O)CNC(=O)c1ccc2c(c1)[nH]c(=O)c1ccsc12 | 
40 | 67% |  | Cc1cc(CNC(=O)c2ccc3c(c2)[nH]c(=O)c2ccsc23)no1 | pIC50 ([3]; Table 12): 6.30
41 | 0% | 55% | O=C(Nc1ccc(Cl)cc1)c1ccc2c(c1)[nH]c(=O)c1ccsc12 | 

Row | inhibition at 1 µM [3, 5] | inhibition at 20 µM ([3]; Table 12) | SMILES | further results
42 | 71% |  | O=C(NCc1cccnc1)c1ccc2c(c1)[nH]c(=O)c1ccsc12 | 
43 | 79% |  | NC(=O)c1ccc2c(c1)[nH]c(=O)c1ccsc12 | pIC50 ([3]; Table 12): 7.22
44 | 65% | 88% | CCCNC(=O)c1ccc2c(c1)[nH]c(=O)c1ccsc12 | pIC50 ([3]; Table 12): 6.00
45 | 0% | 22% | O=C(Nc1ccccc1)c1ccc2c(c1)[nH]c(=O)c1ccsc12 | 
46 | 74% |  | O=c1[nH]c2cc(CO)ccc2c2sccc12 | pIC50 ([3]; Table 12): 6.40
47 | 24% |  | COC(=O)c1ccccc1NC(=O)c1ccc2c(c1)[nH]c(=O)c1ccsc12 | 
48 | 65% | 93% | COCCNC(=O)c1ccc2c(c1)[nH]c(=O)c1ccsc12 | pIC50 ([3]; Table 12): 6.40
49 | 47% | 93% | COC(=O)CNC(=O)c1ccc2c(c1)[nH]c(=O)c1ccsc12 | 
50 | 77% | 96% | O=C(NCCN1CCOCC1)c1ccc2c(c1)[nH]c(=O)c1ccsc12 | pIC50 ([3]; Table 12): 6.30
51 | 89% | 97% | CN(C)C(=O)c1ccc2c(c1)[nH]c(=O)c1ccsc12 | pIC50 ([3]; Table 12): 6.70
52 | 36% |  | O=C(NCc1ccccc1)c1ccc2c(c1)[nH]c(=O)c1ccsc12 | 
53 | 71% |  | O=C(NCc1ccccn1)c1ccc2c(c1)[nH]c(=O)c1ccsc12 | pIC50 ([3]; Table 12): 6.00
54 | 27% | 84% | COC(=O)c1ccc2c(c1)[nH]c(=O)c1ccsc12 | 
55 | 75% |  | O=C(NCc1ccncc1)c1ccc2c(c1)[nH]c(=O)c1ccsc12 | pIC50 ([3]; Table 12): 6.00
56 | 35% | 95% | O=C(O)CCNC(=O)c1ccc2c(c1)[nH]c(=O)c1ccsc12 | 
57 | 83% | 97% | O=C(NCCc1cnc[nH]1)c1ccc2c(c1)[nH]c(=O)c1ccsc12 | pIC50 ([3]; Table 12): 6.70
